The values that follow come from paper PMC9718554, “Discovery of a fragment hit compound targeting D-Ala:D-Ala ligase of bacterial peptidoglycan biosynthesis” (Journal of Enzyme Inhibition and Medicinal Chemistry, 2022).

SMILES strings stand for the structures. Like-named read-outs stand apart in the source and are kept apart here.

This test concerns the target T1, E. coli DdlB enzyme (D-alanine:D-alanine ligase) (Escherichia coli, UniProt P07862).
T1 construct: made in house; host or cells: E. coli
Kind of test: biochemical. The note with it: for remaining activity at 2100 µM: tested concentration 2.1 mM; for remaining activity at 2700 µM: tested concentration 2.7 mM; for remaining activity at 2400 µM: tested concentration 2.4 mM; for remaining activity at 2000 µM: tested concentration 2.0 mM; for remaining activity at 2200 µM: tested concentration 2.2 mM; for remaining activity at 2300 µM: tested concentration 2.3 mM; for remaining activity at 3300 µM: tested concentration 3.3 mM; for remaining activity at 1700 µM: tested concentration 1.7 mM; for remaining activity at 1900 µM: tested concentration 1.9 mM; for remaining activity at 2800 µM: tested concentration 2.8 mM; for remaining activity at 1800 µM: tested concentration 1.8 mM; for remaining activity at 2600 µM: tested concentration 2.6 mM. The procedure:
The fragment library was assayed in a DdlB inhibition assay, where fragments were tested for their ability to inhibit the D-Ala-adding activity of DdlB ligase. The orthophosphate formed during the enzymatic reaction was measured spectrophotometrically using malachite green reagent.
A recombinant E. coli DdlB enzyme (D-alanine:D-alanine ligase) was expressed in E. coli[11]. […] The final DMSO concentration was 5%. […] All experiments were performed in duplicates. […] IC50 values were determined by measuring the residual activities in quadruplicate at seven different compound concentrations and calculated using in GraphPad Prism (GraphPad Software, San Diego, CA, USA).

[1] abbreviates: residual activity of DdlB, fragment library screening, tested concentration 2.5 mM, read-out: DdlB RA.
Where [2] appears, read: residual activity, read-out: DdlB RA.

Consider `CN1CCC(Oc2ncccc2C(=O)O)CC1` [Compound P391-0905], for which the remaining activity at 2100 µM (read-out: DdlB RA) amounted to 92%.

With `CC(=O)N1CCC(O)C2CCCCC21` (stereo not shown) [Compound 8014-2178], the remaining activity at 2500 µM (tested concentration 2.5 mM, read-out: DdlB RA) was found to be 99%.

With `O=C(O)c1cnn(-c2ccccn2)c1` [Compound 8018-8592], the remaining activity at 2700 µM (read-out: DdlB RA) amounted to 94%.

Take `NCc1nc2ccccc2[nH]1` [FLD157]: under setting [1], the remaining activity at 2500 µM was determined as 105%.

Take `CC1(C)CC(=O)c2cnc(NC3CC3)nc2C1` [Compound Y600-1530]: the remaining activity at 2400 µM (read-out: DdlB RA) was determined as 89%.

Regarding `O=S(=O)(O)CCN1CCN(CCO)CC1` [Compound 6105-1549], the remaining activity at 2100 µM (read-out: DdlB RA) turned out to be 99%.

`COc1cccc(-c2ncc(C(=O)O)c(=O)[nH]2)c1` [Compound 8020-2801]: under setting [2], the remaining activity at 2000 µM came out at 92%.

As for `N#Cc1ccc(CN)cc1` [FLD152], for the setting “read-out: DdlB RA”, the remaining activity at 2500 µM came out at 97%.

With `OCCn1cc(Br)cn1` [Compound Y504-8814], the remaining activity at 2900 µM (tested concentration 2.9 mM, read-out: DdlB RA) was 97%.

Take `NS(=O)(=O)c1ccc(Cl)s1` [FLD067]: the remaining activity at 2500 µM under setting [1] is 100%.

As for `O=S(=O)(O)c1ccc(O)c2ncccc12` [Compound 4311-2142], under “read-out: DdlB RA”, the remaining activity at 2200 µM was determined as 96%.

With `O=C(O)c1ccccc1-c1ncc[nH]1` [Compound 8019-7907], the remaining activity at 2700 µM (read-out: DdlB RA) worked out at 102%.

In the case of `N#CCc1nnc(-c2cccc(Cl)c2)[nH]1` [Compound 8018-3009], the remaining activity at 2300 µM under setting [2] turned out to be 93%.

For the compound `CCOc1ncccc1CN` [Compound S055-1650], the remaining activity at 3300 µM (residual activity of DdlB, fragment library screening, read-out: DdlB RA) stood at 89%.

In the case of `O=C(O)c1cnc(-c2cccnc2)[nH]c1=O` [Compound 8020-5063], the remaining activity at 2300 µM under setting [2] turned out to be 94%.

Consider `Cc1ccc(C(=O)N(C)CC2(C)CCOCC2)cn1` [Compound P970-1095], for which the remaining activity at 2300 µM under setting [2] worked out at 94%.

For `Nc1cccc2cccc(S(=O)(=O)O)c12` [Compound 1091-0114], the remaining activity at 2200 µM (read-out: DdlB RA) was found to be 81%.

As for `O=C(O)Cn1nnc(-c2ccccc2Cl)n1` [Compound 8007-4998], the remaining activity at 2100 µM (read-out: DdlB RA) is 93%.

Consider `Cc1ccc(CNC(=O)C2Cn3cccc3C(=O)N2C)o1` (stereo not shown) [Compound S531-0187], for which the remaining activity at 1700 µM under setting [2] was determined as 92%.

For the compound `O=C(O)C1=CC(c2cc(F)cc(F)c2)n2nnnc2N1` (stereo not shown) [Compound J043-0061], the remaining activity at 2100 µM under setting [2] was found to be 101%.

As for `CC1(C)CC(n2nc(O)cc2N)CCO1` (stereo not shown) [Compound 8013-3639], the remaining activity at 2400 µM (read-out: DdlB RA) came to 101%.

Regarding `CC1CCOB(O)O1` (stereo not shown) [Compound 0199-0113], the remaining activity at 4300 µM (tested concentration 4.3 mM, read-out: DdlB RA) is 89%.

`Cc1nc(C#N)c(N2CCOCC2)o1` [Compound 8008-9715]: the remaining activity at 3100 µM (tested concentration 3.1 mM, read-out: DdlB RA) was determined as 93%.

Turning to `CCN(Cc1ccccc1)S(=O)(=O)c1ncn[nH]1` [Compound 8013-0404], the remaining activity at 1900 µM under setting [2] was determined as 89%.

In the case of `N#Cc1ccccc1OCC(=O)O` [Compound C790-0277], the remaining activity at 2800 µM (read-out: DdlB RA) was 96%.

In the case of `COc1ccncc1` [FLD185], the remaining activity at 2500 µM under setting [1] amounted to 99%.

`Brc1ccccn1` [FLD169]: under setting [1], the remaining activity at 2500 µM amounted to 100%.

As for `CC(=O)c1ccc([N+](=O)[O-])cc1` [FLD015], under setting [1], the remaining activity at 2500 µM was found to be 100%.

On to `Cc1nc2ccc(Br)cn2c1C(=O)O` [Compound 8019-4469], for which the remaining activity at 2000 µM under setting [2] is 94%.

Regarding `Cn1nccc1C(=O)N1CCC(Nc2cccnc2)C1` (stereo not shown) [Compound S059-0159], under setting [2], the remaining activity at 2200 µM came to 85%.

For the compound `Cc1ccc(F)c(-n2cc(C(=O)O)nn2)c1` [Compound T640-0432], for the setting “read-out: DdlB RA”, the remaining activity at 2300 µM was determined as 100%.

Consider `NOCc1ccccc1` [FLD044], for which the remaining activity at 2500 µM under setting [1] was determined as 94%.

With `CC1CCN(C(=O)C2N(C(C)C)C(=O)C23CCCC3)CC1` (stereo not shown) [Compound T964-0245], the remaining activity at 2100 µM under setting [2] came out at 95%.

For `COc1ccc(C(O)(C(=O)O)C(F)(F)F)cc1OC` (stereo not shown) [Compound 8013-2786], the remaining activity at 1800 µM under setting [2] is 94%.

Take `O=S(=O)(O)CCN1CCOCC1` [Compound 0083-0027]: under “read-out: DdlB RA”, the remaining activity at 2600 µM was 91%.

With `O=C(O)c1cccnc1F` [FLD134], the remaining activity at 2500 µM under setting [1] is 98%.

For `CC(C)C(=O)N1CC(n2cc(C(=O)N(C)C)nn2)C1` [Compound S724-0111], the remaining activity at 2300 µM under setting [2] stood at 97%.

For `Oc1cc(-c2ccco2)n[nH]1` [Compound Y503-3143], where the note is “read-out: DdlB RA”, the remaining activity at 3300 µM was determined as 98%.

In the case of `CC(=O)N1CCC(CCc2noc(C)n2)C1` (stereo not shown) [SA67-1016], the remaining activity at 2700 µM (read-out: DdlB RA) amounted to 93%.

For the compound `O=S(=O)(O)c1nnc(-c2ccccc2)o1` [Compound 8018-8658], where the note is “read-out: DdlB RA”, the remaining activity at 2200 µM was determined as 98%.

Regarding `CNC(=O)CN1C(=O)CSC1c1ccc(F)cc1` (stereo not shown) [Compound V022-4411], the remaining activity at 1900 µM (read-out: DdlB RA) was 92%.

In the case of `COc1cc(O)cc(OC)c1OC` [FLD027], the remaining activity at 2500 µM under setting [1] was 98%.

For the compound `NS(=O)(=O)c1ccc(NC(=O)CCn2cnnn2)cc1` [Compound 8017-4431], the remaining activity at 1700 µM (read-out: DdlB RA) is 99%.

For `O=C(O)c1cc(S(=O)(=O)N2CCOCC2)ccc1O` [Compound 1494-0564], under setting [2], the remaining activity at 1700 µM turned out to be 92%.

In the case of `Cc1cccc(-c2ccnc3c(C(=O)O)cnn23)c1` [Compound Y502-0116], under “fragment library screening, read-out: DdlB RA”, the remaining activity at 2000 µM was determined as 6%.

As for `Cc1ccccc1CS(=O)(=O)N1CCCC(C)C1` (stereo not shown) [Compound Y300-2308], under setting [2], the remaining activity at 2200 µM is 95%.

On to `COc1cc(C#N)cc2[nH]c(=O)oc12` [Compound 8020-7090], for which, under “read-out: DdlB RA”, the remaining activity at 2600 µM is 97%.

As for `NS(=O)(=O)c1ccc(NC(=O)CCC2CCCC2)cc1` [Compound Y204-2561], where the note is “read-out: DdlB RA”, the remaining activity at 1700 µM was found to be 87%.

Consider `Cc1ccc(S(=O)(=O)N2CCOCC2)c(C)c1` [Compound 2488-0460], for which the remaining activity at 2200 µM (read-out: DdlB RA) is 90%.

For the compound `CCNCc1ccncc1` [FLD193], the remaining activity at 2500 µM under setting [1] came to 91%.

Regarding `O=[N+]([O-])c1cc(S(=O)(=O)O)ccc1Cl` [Compound 0195-0016], where the note is “read-out: DdlB RA”, the remaining activity at 2100 µM stood at 100%.

On to `O=C(O)c1ccc(-c2cnco2)cc1` [FLD026], for which the remaining activity at 2500 µM under setting [1] is 87%.

In the case of `O=C(O)c1cnn2c(-c3cccs3)ccnc12` [Compound 15, 7-(Thiophen-2-yl)pyrazolo[1,5-a]pyrimidine-3-carboxylic acid], the remaining activity at 1000 µM (at 1 mM, read-out: DdlB inhibition, RA (Residual Activity)) was 96%.

Consider `NCc1ccccc1Cl` [FLD174], for which the remaining activity at 2500 µM under setting [1] came out at 100%.

Take `Oc1nc(-c2ccc(F)cc2)no1` [Compound C066-5406]: the remaining activity at 2800 µM (read-out: DdlB RA) was 97%.

Turning to `CC(=O)N1CCC2(CCc3ccc(O)cc3O2)CC1` [Compound Y041-9811], the remaining activity at 2100 µM (read-out: DdlB RA) was 94%.

Consider `O=C(O)Cc1nc(-c2cncc(Br)c2)n[nH]1` [Compound 8020-5455], for which, under setting [2], the remaining activity at 1800 µM was 94%.

For `O=C(c1ccoc1)N1C[C@@H](CO)[C@H](c2ccncc2)C1` [Compound S824-2534], under setting [2], the remaining activity at 2200 µM came out at 95%.

With `CCC(=O)N1CCC(CC(=O)N2CCOCC2)C1` (stereo not shown) [Compound S421-0882], the remaining activity at 2000 µM (read-out: DdlB RA) was determined as 70%.

Regarding `COC(=O)CCC(=O)Nc1ccc(S(N)(=O)=O)cc1` [Compound 1699-0796], under “read-out: DdlB RA”, the remaining activity at 1700 µM is 89%.

As to `Cc1nn(C(F)F)cc1S(=O)(=O)N1CCC(C)CC1` [Compound Y501-4822], the remaining activity at 1900 µM under setting [2] worked out at 97%.

Take `c1ccc2c(c1)N(CN1CCCC1)CC21OCCO1` [Compound 5482-0050]: the remaining activity at 2300 µM (read-out: DdlB RA) is 94%.

For the compound `C#CC1(O)C(C)CN(C)CC1C` (stereo not shown) [Compound 8013-1764], the remaining activity at 3600 µM (residual activity of DdlB, fragment library screening, tested concentration 3.6 mM, read-out: DdlB RA) was 97%.

With `CC(C)c1ccc(Nc2c(O)c(=O)c2=O)cc1` [Compound G317-0548], for the setting “read-out: DdlB RA”, the remaining activity at 2200 µM stood at 91%.

`O=C(O)c1cc(-c2ccc3c(c2)OCO3)on1` [Compound R314-0020]: the remaining activity at 2100 µM under setting [2] was found to be 114%.

In the case of `COC(=O)c1nnn(-c2ccccc2)c1O` [Compound 8017-3559], the remaining activity at 2300 µM (read-out: DdlB RA) stood at 104%.

As for `Cc1onc(-c2ccccc2Cl)c1C(=O)NCC#N` [Compound Y030-1543], the remaining activity at 2200 µM under setting [2] turned out to be 98%.

On to `CCC(=O)Nc1ccc2[nH]c(=O)oc2c1` [Compound G434-0836], for which the remaining activity at 2400 µM (read-out: DdlB RA) is 85%.

`N#CCc1nnn[nH]1` [Compound 8018-8768]: the remaining activity at 5500 µM (residual activity of DdlB, fragment library screening, tested concentration 5.5 mM, read-out: DdlB RA) turned out to be 97%.

As for `O=c1c(O)c(NCCc2ccccc2)c1=O` [Compound G317-0516], for the setting “read-out: DdlB RA”, the remaining activity at 2300 µM was 92%.

Consider `Nc1c(Br)cc(Br)cc1C(=O)O` [FLD132], for which, under setting [1], the remaining activity at 2500 µM was 100%.

For the compound `O=c1c(O)c(N2CCc3ccccc3C2)c1=O` [Compound G317-0491], the remaining activity at 2200 µM (read-out: DdlB RA) worked out at 90%.

`CCOC(=O)c1ccccc1S(N)(=O)=O` [Compound 0147-0017]: the remaining activity at 2200 µM (read-out: DdlB RA) worked out at 99%.
